target: T1, human μ-opiate receptor (Homo sapiens, UniProt P35372); test: Affinity for the human μ-opiate receptor ([3H]-naloxone displacement, SPA); settings: Table 1, aldehydes; test substance 1 μmole/l; inhibition of specific [3H]-naloxone binding; CHO-K1 membranes; read-out: μ-Opioid receptor, % inhibition [1 μM]
T1 construct: purchased PerkinElmer Life Sciences, Zaventem, Belgium RB-HOM; host or cells: CHO-K1 cells (recombinant expression; membrane preparation)
Method in brief: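 CHO-K1 membranes expressing the receptor, incubated 90 min at room temperature with 1 nmol/l [3H]-naloxone and WGA-SPA beads in 50 mmol/l Tris-HCl with 0.06% BSA. Non-specific binding defined with 100 μmol/l naloxone. Value is % inhibition of specific binding at 1 μmol/l test substance.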

T1 sequence (P35372 whole entry): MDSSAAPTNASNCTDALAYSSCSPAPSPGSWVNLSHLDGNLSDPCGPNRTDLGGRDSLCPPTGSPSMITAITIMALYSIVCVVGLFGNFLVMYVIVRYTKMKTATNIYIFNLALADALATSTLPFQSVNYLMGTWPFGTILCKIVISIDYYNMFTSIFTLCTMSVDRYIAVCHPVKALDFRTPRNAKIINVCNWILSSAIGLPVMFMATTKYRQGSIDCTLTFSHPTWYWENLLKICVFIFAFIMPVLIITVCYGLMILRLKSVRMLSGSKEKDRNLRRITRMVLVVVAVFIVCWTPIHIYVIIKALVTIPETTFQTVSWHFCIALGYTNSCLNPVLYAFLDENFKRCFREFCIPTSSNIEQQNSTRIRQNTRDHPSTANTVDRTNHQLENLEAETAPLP

Which inhibition at 1 µM does the source give for CN(C)C(c1cccc(F)c1)C1CCC(CC=O)CC1 (centres unmarked) [Example 10b, {4-[dimethylamino-(3-fluorophenyl)-methyl]-cyclohexyl}-acetaldehyde] here?
The inhibition at 1 µM was 67%.

same assay, conditions: Table 2, Examples 11-161; test substance 1 μmole/l; inhibition of specific [3H]-naloxone binding; CHO-K1 membranes; read-out: μ-Opioid receptor, % inhibition [1 μM]

How did the inhibition at 1 µM turn out when COC(=O)C1(CSCc2ccccc2)N=CN(Cc2ccccc2)C1CC1CCC(C(c2ccc(Cl)cc2)N(C)C)CC1 (centres unmarked) [Example 101, 1-benzyl-4-benzylsulfanylmethyl-5-{4-[(4-chlorophenyl)-dimethylaminomethyl]-cyclohexylmethyl}-4,5-dihydro-1H-imidazole-4-carboxylic acid methyl ester] was run?
The inhibition at 1 µM was 96%.

Which inhibition at 1 µM does the source give for CCCN1C=NC(CCC(=O)OC)(C(=O)OC)C1C1CCC(C(c2ccc(Cl)cc2)N(C)C)CC1 (centres unmarked) [Example 59, 5-{4-[(4-chlorophenyl)-dimethylaminomethyl]-cyclohexyl}-4-(2-methoxycarbonylethyl)-1-propyl-4,5-dihydro-1H-imidazole-4-carboxylic acid methyl ester] here?
The inhibition at 1 µM was 84%.

How did the inhibition at 1 µM turn out when COC(=O)C1(Cc2ccc(Cl)cc2)N=CN(CCc2ccccc2)C1C1CCC(C(c2cccc(F)c2)N(C)C)CC1 (centres unmarked) [Example 38, 4-(4-chlorobenzyl)-5-{4-[dimethylamino-(3-fluorophenyl)-methyl]-cyclohexyl}-1-phenethyl-4,5-dihydro-1H-imidazole-4-carboxylic acid methyl ester] was run?
Its inhibition at 1 µM is 84%.

How did the inhibition at 1 µM turn out when COC(=O)C1(CC(C)C)N=CN(C2CCCCC2)C1C1CCC(C(c2cccc(F)c2)N(C)C)CC1 (centres unmarked) [Example 11, 1-cyclohexyl-5-{4-[dimethylamino-(3-fluorophenyl)-methyl]-cyclohexyl}-4-isobutyl-4,5-dihydro-1H-imidazole-4-carboxylic acid methyl ester] was run?
The inhibition at 1 µM was 84%.

For COC(=O)CCC1(C(=O)OC)N=CN(C2CCCCC2)C1CC1CCC(C(c2ccc(Cl)cc2)N(C)C)CC1 (centres unmarked) [Example 53, 5-{4-[(4-chlorophenyl)-dimethylaminomethyl]-cyclohexylmethyl}-1-cyclohexyl-4-(2-methoxycarbonylethyl)-4,5-dihydro-1H-imidazole-4-carboxylic acid methyl ester], which inhibition at 1 µM is on record?
Its inhibition at 1 µM is 96%.

For CCCCN1C=NC(CCC)(C(=O)OC)C1CC1CCC(C(c2ccc(F)cc2)N(C)C)CC1 (centres unmarked) [Example 125, 1-butyl-5-{4-[dimethylamino-(4-fluorophenyl)-methyl]-cyclohexylmethyl}-4-propyl-4,5-dihydro-1H-imidazole-4-carboxylic acid methyl ester], which inhibition at 1 µM is on record?
The inhibition at 1 µM was 91%.

With COC(=O)C1(CCSC)N=CN(Cc2ccccc2)C1CC1CCC(C(c2ccc(F)cc2)N(C)C)CC1 (centres unmarked) [Example 142, 1-benzyl-5-{4-[dimethylamino-(4-fluorophenyl)-methyl]-cyclohexylmethyl}-4-(2-methylsulfanyl-ethyl)-4,5-dihydro-1H-imidazole-4-carboxylic acid methyl ester] as the molecule, how does the inhibition at 1 µM read?
Its inhibition at 1 µM is 97%.

For COC(=O)CCC1(C(=O)OC)N=CN(CCc2ccccc2)C1C1CCC(C(c2cccc(F)c2)N(C)C)CC1 (centres unmarked) [Example 91, 5-{4-[dimethylamino-(3-fluorophenyl)-methyl]-cyclohexyl}-4-(2-methoxycarbonylethyl)-1-phenethyl-4,5-dihydro-1H-imidazole-4-carboxylic acid methyl ester], which inhibition at 1 µM is on record?
Its inhibition at 1 µM is 85%.

With CCCCN1C=NC(CCSC)(C(=O)OC)C1CC1CCC(C(CCc2ccccc2)N(C)C)CC1 (centres unmarked) [Example 128, 1-butyl-5-[4-(1-dimethylamino-3-phenylpropyl)-cyclohexylmethyl]-4-(2-methylsulfanylethyl)-4,5-dihydro-1H-imidazole-4-carboxylic acid methyl ester] as the molecule, how does the inhibition at 1 µM read?
The inhibition at 1 µM was 83%.

Which inhibition at 1 µM does the source give for COC(=O)C1(CSC)N=CN(Cc2ccccc2)C1CC1CCC(C(c2ccc(Cl)cc2)N(C)C)CC1 (centres unmarked) [Example 100, 1-benzyl-5-{4-[(4-chlorophenyl)-dimethylaminomethyl]-cyclohexylmethyl}-4-methylsulfanylmethyl-4,5-dihydro-1H-imidazole-4-carboxylic acid methyl ester] here?
Its inhibition at 1 µM is 97%.

With CCCCN1C=NC(CCC(=O)OC)(C(=O)OC)C1CC1CCC(C(c2cccc(F)c2)N(C)C)CC1 (centres unmarked) [Example 72, 1-butyl-5-{4-[dimethylamino-(3-fluorophenyl)-methyl]-cyclohexylmethyl}-4-(2-methoxycarbonylethyl)-4,5-dihydro-1H-imidazole-4-carboxylic acid methyl ester] as the molecule, how does the inhibition at 1 µM read?
Its inhibition at 1 µM is 95%.

CCCCN1C=NC(CCC(=O)OC)(C(=O)OC)C1CC1CCC(C(CCc2ccccc2)N(C)C)CC1 (centres unmarked) [Example 78, 1-butyl-5-[4-(1-dimethylamino-3-phenylpropyl)-cyclohexylmethyl]-4-(2-methoxycarbonylethyl)-4,5-dihydro-1H-imidazole-4-carboxylic acid methyl ester] was tested. Which inhibition at 1 µM did it give?
The inhibition at 1 µM was 67%.

CCCC1(C(=O)OC)N=CN(CCc2ccccc2)C1CC1CCC(C(CCc2ccccc2)N(C)C)CC1 (centres unmarked) [Example 135, 5-[4-(1-dimethylamino-3-phenylpropyl)-cyclohexylmethyl]-1-phenethyl-4-propyl-4,5-dihydro-1H-imidazole-4-carboxylic acid methyl ester] was tested. Which inhibition at 1 µM did it give?
The inhibition at 1 µM was 85%.

Which inhibition at 1 µM does the source give for COC(=O)C1(CC(C)C)N=CN(Cc2ccccc2)C1CC1CCC(C(c2ccc(Cl)cc2)N(C)C)CC1 (centres unmarked) [Example 50, 1-benzyl-5-{4-[(4-chlorophenyl)-dimethylaminomethyl]-cyclohexylmethyl}-4-isobutyl-4,5-dihydro-1H-imidazole-4-carboxylic acid methyl ester] here?
Its inhibition at 1 µM is 94%.

For CCCN1C=NC(CSC)(C(=O)OC)C1C1CCC(C(c2cccc(F)c2)N(C)C)CC1 (centres unmarked) [Example 57, 5-{4-[dimethylamino-(3-fluorophenyl)-methyl]-cyclohexyl}-4-methylsulfanylmethyl-1-propyl-4,5-dihydro-1H-imidazole-4-carboxylic acid methyl ester], which inhibition at 1 µM is on record?
Its inhibition at 1 µM is 86%.

CCCN1C=NC(CC(C)C)(C(=O)OC)C1C1CCC(C(c2cccc(F)c2)N(C)C)CC1 (centres unmarked) [Example 21, 5-{4-[dimethylamino-(3-fluorophenyl)-methyl]-cyclohexyl}-4-isobutyl-1-propyl-4,5-dihydro-1H-imidazole-4-carboxylic acid methyl ester] was tested. Which inhibition at 1 µM did it give?
The inhibition at 1 µM was 83%.

Which inhibition at 1 µM does the source give for CCCCN1C=NC(CSCc2ccccc2)(C(=O)OC)C1C1CCC(C(c2ccc(Cl)cc2)N(C)C)CC1 (centres unmarked) [Example 69, 4-benzylsulfanylmethyl-1-butyl-5-{4-[(4-chlorophenyl)-dimethylaminomethyl]-cyclohexyl}-4,5-dihydro-1H-imidazole-4-carboxylic acid methyl ester] here?
The inhibition at 1 µM was 95%.

Which inhibition at 1 µM does the source give for CCCN1C=NC(CCC)(C(=O)OC)C1CC1CCC(C(c2cccc(F)c2)N(C)C)CC1 (centres unmarked) [Example 111, 5-{4-[dimethylamino-(3-fluorophenyl)-methyl]-cyclohexylmethyl}-1,4-dipropyl-4,5-dihydro-1H-imidazole-4-carboxylic acid methyl ester] here?
Its inhibition at 1 µM is 90%.

CCCN1C=NC(CSC)(C(=O)OC)C1CC1CCC(C(c2ccc(F)cc2)N(C)C)CC1 (centres unmarked) [Example 160, 5-{4-[dimethylamino-(4-fluorophenyl)-methyl]-cyclohexylmethyl}-4-methylsulfanylmethyl-1-propyl-4,5-dihydro-1H-imidazole-4-carboxylic acid methyl ester] was tested. Which inhibition at 1 µM did it give?
Its inhibition at 1 µM is 74%.

From patent US7728028B2, “Substituted imidazoline compounds” (Gruenenthal GmbH, priority 2005, dated 2010)
